# Assay results: patent publication EP1019392B1, “TRICYCLIC AMIDES USEFUL FOR INHIBITION OF G-PROTEIN FUNCTION AND FOR TREATMENT OF PROLIFERATIVE DISEASES” (SCHERING CORPORATION, priority 1995, dated 1997)
# Where two headings read alike, the source gives them in different places.
# Experiments:
# [1] = tested on: SW620-BAG human colon carcinoma cells expressing an activated K-ras gene; assay: Cell Mat Assay, SW620 tumor cells; assay type: cell-based
# [2] = tested on: T24-BAG4 human bladder carcinoma cells expressing an activated H-ras gene; assay: Cell Mat Assay, T24 tumor cells; assay type: cell-based; conditions: read-out: Tumor (T-24) IC50
# [3] = tested on: Normal human HEPM fibroblasts; assay: Cell Mat Assay, normal cell mat; assay type: cell-based; conditions: normal monolayer
# [4] = tested on: DLD-1-BAG human colon carcinoma cells expressing as activated K-ras gene; assay: Cell Mat Assay, DLD-1 tumor cells; assay type: cell-based
# [5] = tested on: Ras-CVLS processing in COS monkey kidney cells; assay: COS cell assay: inhibition of Ras-CVLS processing (Western blot); assay type: cell-based
# Excerpt: • 1. In vitro enzyme assays: Inhibition of farnesyl protein transferase and geranylgeranyl protein transferase. Both farnesyl protein transferase (FPT) and geranylgeranyl protein transferase (GGPT) I were partially purified from rat brain by ammonium sulfate fractionation followed by Q-Sepharose (Pharmacia, Inc.) anion exchange chromatography essentially as described by Yokoyama et al (Yokoyama, K., et al., (1991), A protein geranylgeranyltransferase from bovine brain: Implications for protein prenylation specificity, Proc. Natl. Acad. Sci USA 88: 5302-5306, the disclosure of which is incorporated herein by reference thereto). Human farnesyl protein transferase was also expressed in E. coli, using cDNA clones encoding both the a and b subunits. The methods used were similar to those published (Omer, C. et al., (1993), Characterization of recombinant human farnesyl protein transferase: Cloning, expression, farnesyl diphosphate binding, and functional homology with yeast prenyl-protein transferases, Biochemistry 32:5167-5176). Human farnesyl protein transferase was partially-purified from the soluble protein fraction of E. coli as described above. […] Two forms of val^12-Ha-Ras protein were prepared as substrates for these enzymes, differing in their carboxy terminal sequence. One form terminated in cysteine-valine-leucine-serine (Ras-CVLS) the other in cystein-valine-leucine-leucine (Ras-CVLL). Ras-CVLS is a substrate for the farnesyl protein transferase while Ras-CVLL is a substrate for geranylgeranyl protein transferase I. The cDNAs encoding these proteins were constructed so that the proteins contain an amino-terminal extension of 6 histidine residues. Both proteins were expressed in Escherichia coli and purified using metal chelate affinity chromatography. The radiolabelled isoprenyl pyrophosphate substrates, [^3H]farnesyl pyrophosphate and [^3H]geranylgeranyl pyrophosphate, were purchased from DuPont/New England Nuclear. Several methods for measuring farnesyl protein transferase activity have been described (Reiss et al 1990, Cell 62: 81; Schaber et al 1990, J. Biol. Chem. 265: 14701; Manne et al 1990, PNAS 87: 7541; and Barbacid & Manne 1993, U.S. Patent No. 5,185,248). […] The reaction was allowed to proceed for 30 minutes at room temperature and then stopped with 0.5 ml of 4% sodium dodecyl sulfate (SDS) followed by 0.5 ml of cold 30% TCA. Samples were allowed to sit on ice for 45 minutes and precipitated Ras protein was then collected on GF/C filter paper mats using a Brandel cell harvester. Filter mats were washed once with 6% TCA, 2% SDS and radioactivity was measured in a Wallac 1204 Betaplate BS liquid scintillation counter. Percent inhibition was calculated relative to the DMSO vehicle control. The geranylgeranyl protein transferase I assay was essentially identical to the farnesyl protein transferase assay described above, with two exceptions: [^3H]geranylgeranylpyrophosphate replaced farnesyl pyrophosphate as the isoprenoid donor and Ras-CVLL was the protein acceptor. […] Cell-Based Assay: Transient expression of val^12-Ha-Ras-CVLS and val^12-Ha-Ras-CVLL in COS monkey kidney cells: Effect of farnesyl protein transferase inhibitors on Ras processing and on disordered cell growth induced by transforming Ras. COS monkey kidney cells were transfected by electroporation with the plasmid pSV-SPORT (Gibco/BRL) containing a cDNA insert encoding either Ras-CVLS or Ras-CVLL, leading to transient overexpression of a Ras substrate for either farnesyl protein transferase or geranylgeranyl protein transferase I, respectively (see above). Following electroporation, cells were plated into 6-well tissue culture dishes containing 1.5 ml of Dulbecco's-modified Eagle's media (GIBCO, Inc.) supplemented with 10% fetal calf serum and the appropriate farnesyl protein transferase inhibitors. After 24 hours, media was removed and fresh media containing the appropriate drugs was re-added.
# [6] = target: T1, farnesyl protein transferase (FPT) (Rattus norvegicus, UniProt Q02293+Q04631); assay: In vitro enzyme assay: inhibition of farnesyl protein transferase (transfer of [3H]farnesyl to Ras-CVLS); assay type: biochemical; conditions: partially purified rat brain FPT, Ras-CVLS
# T1 construct: were partially purified from rat brain by ammonium sulfate fractionation followed by Q-Sepharose; from tissue; host or cells: rat brain
# Method: • 1. In vitro enzyme assays: Inhibition of farnesyl protein transferase and geranylgeranyl protein transferase. […] Human farnesyl protein transferase was also expressed in E. coli, using cDNA clones encoding both the a and b subunits. […] Human farnesyl protein transferase was partially-purified from the soluble protein fraction of E. coli as described above. […] Two forms of val^12-Ha-Ras protein were prepared as substrates for these enzymes, differing in their carboxy terminal sequence. One form terminated in cysteine-valine-leucine-serine (Ras-CVLS) the other in cystein-valine-leucine-leucine (Ras-CVLL). Ras-CVLS is a substrate for the farnesyl protein transferase while Ras-CVLL is a substrate for geranylgeranyl protein transferase I. The cDNAs encoding these proteins were constructed so that the proteins contain an amino-terminal extension of 6 histidine residues. Both proteins were expressed in Escherichia coli and purified using metal chelate affinity chromatography. The radiolabelled isoprenyl pyrophosphate substrates, [^3H]farnesyl pyrophosphate and [^3H]geranylgeranyl pyrophosphate, were purchased from DuPont/New England Nuclear. […] The reaction was allowed to proceed for 30 minutes at room temperature and then stopped with 0.5 ml of 4% sodium dodecyl sulfate (SDS) followed by 0.5 ml of cold 30% TCA. Samples were allowed to sit on ice for 45 minutes and precipitated Ras protein was then collected on GF/C filter paper mats using a Brandel cell harvester. […] Percent inhibition was calculated relative to the DMSO vehicle control. The geranylgeranyl protein transferase I assay was essentially identical to the farnesyl protein transferase assay described above, with two exceptions: [^3H]geranylgeranylpyrophosphate replaced farnesyl pyrophosphate as the isoprenoid donor and Ras-CVLL was the protein acceptor. […] Cell-Based Assay: Transient expression of val^12-Ha-Ras-CVLS and val^12-Ha-Ras-CVLL in COS monkey kidney cells: Effect of farnesyl protein transferase inhibitors on Ras processing and on disordered cell growth induced by transforming Ras. COS monkey kidney cells were transfected by electroporation with the plasmid pSV-SPORT (Gibco/BRL) containing a cDNA insert encoding either Ras-CVLS or Ras-CVLL, leading to transient overexpression of a Ras substrate for either farnesyl protein transferase or geranylgeranyl protein transferase I, respectively (see above). Following electroporation, cells were plated into 6-well tissue culture dishes containing 1.5 ml of Dulbecco's-modified Eagle's media (GIBCO, Inc.) supplemented with 10% fetal calf serum and the appropriate farnesyl protein transferase inhibitors. After 24 hours, media was removed and fresh media containing the appropriate drugs was re-added. 48 hours after electroporation cells were examined under the microscope to monitor disordered cell growth induced by transforming Ras. Cells expressing transforming Ras become more rounded and refractile and overgrow the monolayer, reminiscent of the transformed phenotype. Cells were then photographed, washed twice with 1 ml of cold phosphate-buffered saline (PBS) and removed from the dish by scraping with a rubber policeman into 1 ml of a buffer containing 25 mM Tris, pH 8.0; 1 mM ethylenediamine tetraacetic acid; 1 mM phenylmethylsulfonyl fluoride; […] leupeptin; and 0.1 mM pepstatin. Cells were lysed by homogenization and cell debris was removed by centrifugation at 2000 x g for 10 min. Cellular protein was precipitated by addition of ice-cold trichloroacetic acid and redissolved in […] of SDS-electrophoresis sample buffer. […] Proteins resolved on the gels were electroblotted onto nitrocellulose membranes for immunodetection. […] After washing, membranes were incubated for one hour at room temperature with a 1:5000 dilution of secondary antibody, rabbit anti-rat IgG conjugated to horseradish peroxidase, in PBS containing 1% fetal calf serum.
# [7] = tested on: DLD-1 (human colon carcinoma cells, ATCC # CCL 221); assay: In Vivo Anti-Tumor Studies, subcutaneous DLD-1 tumors; parameters: species or system athymic nu/nu female mice; conditions: Mus musculus, DLD-1, po, QID, 4 weeks, range over the listed compounds; for inhibition in vivo at 10 mg/kg: 10 mg/kg p.o.; for inhibition in vivo at 50 mg/kg: 50 mg/kg p.o.
# Excerpt: Tumor cells (5 X 10^5 to 8 X 10^6) of DLD-1 (human colon carcinoma cells, ATCC # CCL 221) are innolculated subcutaneously into the flank of 5-6 week o;d athymic nu/nu female mice.
# [8] = Homo sapiens, SW-620, Mat assay
Compound,"IC50 [1, 8]",IC50 ([2]; Homo sapiens),"IC50 ([4]; Homo sapiens, DLD-1, Mat assay)","IC50 ([5]; Primates, COS)","IC50 ([6]; Table 1, read-out: FPT IC50)",IC50 [3],IC50 [2],further results
"NC(=O)N1CCC(CC(=O)N2CCC(C3c4ccc(Cl)c(Br)c4CCc4cc(Br)cnc43)CC2)CC1 (single isomer, unassigned) [Example 13B]",> 3.1 µM,< 1600 nM,,,,,,
NC(=O)N1CCC(CC(=O)N2CCN([C@@H]3c4ccc(Cl)cc4CCc4cc(Br)cnc43)CC2)CC1 [Example 17],,1600 nM,6.25 µM,350 nM,43 nM,,,"IC50 ([3]; Homo sapiens, Fibroblast): > 25 µM"
O=C(Cc1cc[n+]([O-])cc1)N1CCC(C2c3ncc(Br)cc3CCc3cc(Cl)cc(Br)c32)CC1 (stereo not shown) [Example 9B],,,,,,,,"IC50 ([6]; FPT IC50, Table 1): 3 nM"
O=C(Cc1cc[n+]([O-])cc1)N1CCN(C2c3ncc(Br)cc3CCc3cc(Cl)cc(Br)c32)CC1 (racemic) [Example 11],,,,< 250 nM,2 nM,,,
NC(=O)N1CCC(CC(=O)N2CCC(=C3c4ncc(Br)cc4CCc4cc(Cl)cc(Br)c43)CC2)CC1 (racemic) [Example 8],3.1 µM,< 1600 nM,3.1 µM,< 250 nM,,,,"IC50 ([3]; Homo sapiens, Fibroblast): > 25 µM"
"O=C(Cc1cc[n+]([O-])cc1)N1CCC(=C2c3ncc(Br)cc3CCc3cc(Cl)cc(Br)c32)CC1 (single isomer, unassigned) [Example 7A]",,,,,,> 25 µM,< 1600 nM,"inhibition in vivo at 10 mg/kg [7]: 7 to 50%; inhibition in vivo at 50 mg/kg [7]: 35.4 to 83%; IC50 [5]: > 1000 nM; IC50 ([6]; FPT IC50, Table 1): > 100 nM"
NC(=O)N1CCC(CC(=O)N2CCN([C@H]3c4ccc(Cl)c(Br)c4CCc4cc(Br)cnc43)CC2)CC1 [Example 6],6.24 µM,< 1600 nM,4 µM,40 nM,3.1 nM,,,inhibition in vivo at 10 mg/kg [7]: 7 to 50%; inhibition in vivo at 50 mg/kg [7]: 35.4 to 83%
O=C(Cc1cc[n+]([O-])cc1)N1CCN([C@@H]2c3ncc(Br)cc3CCc3cc(Cl)cc(Br)c32)CC1 [Example 11B],,,,,> 95 nM,> 25 µM,< 1600 nM,IC50 ([4]; Mat assay): 8 µM; IC50 ([1]; Mat assay): 18 µM
NC(=O)N1CCC(CC(=O)N2CCC(C3c4ncc(Br)cc4CCc4cc(Cl)cc(Br)c43)CC2)CC1 (stereo not shown) [Example 10B],,,,,,> 25 µM,< 1600 nM,IC50 ([4]; Mat assay): 1.6 µM; IC50 ([1]; Mat assay): 1.6 µM
